IC50, CC50 and EC50 data for 25 molecules are collected here from ChEMBL document CHEMBL4033720, “Discovery of novel cyclic peptide inhibitors of dengue virus NS2B-NS3 protease with antiviral activity” (Bioorg Med Chem Lett, 2017).

Where a SMILES comes first, the peptide text is derived from it.

Series [1] is described as follows: Inhibition of dengue virus 2 NS2B-NS3 protease pre-incubated for 10 mins before Boc-Gly-Arg-Arg-peptidyl-4-methylcoumaryl-7-amide substrate addition and measured after 2 hrs by fluorescence based assay. Also noted: species or system dengue virus type 2.
Series [2] is described as follows: Toxicity in BHK21 cells assessed a reduction in cell viability after 4 days by resazurin dye based method. More on the design: species or system Mesocricetus auratus, BHK-21. The settings on record: hamster. (In general: Resazurin is reduced to fluorescent resorufin, in cell work by metabolically active cells.)
The test system of a further series is dengue virus type 2. As to the kind of experiment: Antiviral activity against dengue virus 2 infected in BHK21 cells assessed as inhibition of virus-induced cytopathic effect after 4 days by resazurin dye based method. Type of series: functional, cell-based. The conditions noted are these: Dengue virus, BHK-21, 96 h; read-out: EC50. (In general: Damage to the host cells serves as the signal in cytopathic effect assays.)

For `C[C@@H]1NC(=O)[C@H](C)NC(=O)[C@H](CCc2ccccc2)NC(=O)[C@H](CO)NC(=O)[C@H](CCCCN)NC(=O)[C@H](CCCNC(=N)N)NC(=O)[C@H](CCCCN)NC(=O)CNC1=O` (HELM PEPTIDE1{A.A.G.K.R.K.S.[O=C([C@H](CCc1ccccc1)N[*:1])[*:2]]}$PEPTIDE1,PEPTIDE1,1:R1-8:R2$$$V2.0), the midpoint of inhibition in series [1], the IC50, lay at 18.4 µM.
The same measure, in the same setting: with `C[C@@H]1NC(=O)[C@H](CS)NC(=O)[C@H](CCc2ccccc2)NC(=O)[C@H](CO)NC(=O)[C@H](CCCCN)NC(=O)[C@H](CCCNC(=N)N)NC(=O)[C@H](CCCCN)NC(=O)CNC1=O` the figure was 9.2 µM; with `C[C@@H]1NC(=O)[C@H](CS)NC(=O)[C@H](Cc2ccccc2)NC(=O)[C@H](CO)NC(=O)[C@H](CCCCN)NC(=O)[C@H](CCCNC(=N)N)NC(=O)[C@H](CCCCN)NC(=O)CNC1=O` (HELM PEPTIDE1{A.G.K.R.K.S.F.C}$PEPTIDE1,PEPTIDE1,1:R1-8:R2$$$V2.0), 39.3 µM; with `C[C@@H]1NC(=O)[C@H](CS)NC(=O)[C@@H](CCc2ccccc2)NC(=O)[C@H](CO)NC(=O)[C@H](CCCCN)NC(=O)[C@H](CCCNC(=N)N)NC(=O)[C@H](CCCCN)NC(=O)CNC1=O`, 38.7 µM.
In the case of `C[C@@H]1NC(=O)[C@H](CS)NC(=O)CNC(=O)[C@H](CO)NC(=O)[C@H](CCCCN)NC(=O)[C@H](C)NC(=O)[C@H](CCCCN)NC(=O)CNC1=O` (HELM PEPTIDE1{A.G.K.A.K.S.G.C}$PEPTIDE1,PEPTIDE1,1:R1-8:R2$$$V2.0), the IC50 (usually the concentration at which inhibition is half-maximal) in series [1] is greater than 200 µM.
The same measure, in the same setting: with `C[C@@H]1NC(=O)[C@H](CCc2ccccc2)NC(=O)[C@H](CO)NC(=O)[C@H](CCCCN)NC(=O)[C@H](CCCNC(=N)N)NC(=O)[C@H](CCCCN)NC(=O)CNC(=O)[C@@H](c2ccccc2)NC1=O` the figure was 15.1 µM.
Consider `N=C(N)NCCC[C@@H]1NC(=O)[C@H](CCCNC(=N)N)NC(=O)[C@@H](CCCNC(=N)N)NC(=O)[C@@H](CCCNC(=N)N)NC(=O)[C@H](CO)NC(=O)[C@H](Cc2ccc(-c3ccccc3)cc2)NC(=O)[C@H](CO)NC(=O)[C@H](CCCCN)NC1=O`, for which the CC50 (as a rule, the concentration that lowers cell viability or growth by half) at 96 h in series [2] was greater than 400 µM. Moreover, the IC50 in series [1] turned out to be 2.3 µM. In addition, the EC50 (commonly the concentration giving half of the maximal effect) in the series on dengue virus type 2 was 141 µM.
The like results for `N=C(N)NCCC[C@@H]1NC(=O)[C@H](CCCNC(=N)N)NC(=O)[C@H]2CCCN2C(=O)[C@@H](Cc2ccccc2)NC(=O)[C@H](CO)NC(=O)[C@H](Cc2ccc(-c3ccccc3)cc2)NC(=O)[C@H](CO)NC(=O)[C@H](CCCCN)NC1=O` were, in that order, greater than 400 µM, 3.8 µM and 108 µM.
As for `C[C@@H]1NC(=O)[C@H](CCc2ccccc2)NC(=O)[C@H](CO)NC(=O)[C@H](CCCCN)NC(=O)[C@H](CCCNC(=N)N)NC(=O)[C@H](CCCCN)NC(=O)CNC(=O)[C@H](Cc2ccccc2)NC1=O`, the IC50 in series [1] is 19.8 µM. In other words, the double-digit micromolar range.
The same measure, in the same setting: in the case of `C[C@H]1NC(=O)[C@@H](Cc2ccccc2)NC(=O)[C@H](CO)NC(=O)[C@H](CCc2ccccc2)NC(=O)[C@H](CO)NC(=O)[C@H](CCCCN)NC(=O)[C@H](CCCNC(=N)N)NC(=O)[C@H](CCCCN)NC1=O` it was 3.3 µM.
`N=C(N)NCCC[C@@H]1NC(=O)[C@H](CCCCN)NC(=O)[C@H]2CCCN2C(=O)[C@@H](Cc2ccccc2)NC(=O)[C@H](CO)NC(=O)[C@H](Cc2ccc(-c3ccccc3)cc2)NC(=O)[C@H](CO)NC(=O)[C@H](CCCCN)NC1=O` registered a half-maximal cytotoxic concentration (CC50) at 96 h in series [2] greater than 400 µM. This molecule also yielded an IC50 in series [1] of 3.8 µM. In addition, the EC50 with dengue virus type 2 came to 293 µM.
`C[C@@H]1NC(=O)[C@H](CS)NC(=O)CNC(=O)[C@H](C)NC(=O)[C@H](CCCCN)NC(=O)[C@H](CCCNC(=N)N)NC(=O)[C@H](CCCCN)NC(=O)CNC1=O` (HELM PEPTIDE1{A.G.C.A.G.K.R.K}$PEPTIDE1,PEPTIDE1,1:R1-8:R2$$$V2.0) showed an IC50 in series [1] greater than 200 µM.
On the same count and under the same terms, with `C[C@@H]1NC(=O)[C@H](CS)NC(=O)CNC(=O)[C@H](CO)NC(=O)[C@H](CCCCN)NC(=O)[C@H](CCCNC(=N)N)NC(=O)[C@H](CCCCN)NC(=O)CNC1=O` (HELM PEPTIDE1{A.G.K.R.K.S.G.C}$PEPTIDE1,PEPTIDE1,1:R1-8:R2$$$V2.0) the figure was 114 µM; with `C[C@@H]1NC(=O)[C@H](CS)NC(=O)[C@H](c2ccccc2)NC(=O)[C@H](CO)NC(=O)[C@H](CCCCN)NC(=O)[C@H](CCCNC(=N)N)NC(=O)[C@H](CCCCN)NC(=O)CNC1=O` (HELM PEPTIDE1{A.G.K.R.K.S.[Phg].C}$PEPTIDE1,PEPTIDE1,1:R1-8:R2$$$V2.0), 22.1 µM; with `C[C@@H]1NC(=O)[C@H](CCc2ccccc2)NC(=O)[C@H](CO)NC(=O)[C@H](CCCCN)NC(=O)[C@H](CCCNC(=N)N)NC(=O)[C@H](CCCCN)NC(=O)CNC(=O)[C@H](CCc2ccccc2)NC1=O`, 25.6 µM.
`N=C(N)NCCC[C@@H]1NC(=O)[C@H](CCCNC(=N)N)NC(=O)[C@@H](CCCNC(=N)N)NC(=O)[C@@H](Cc2ccccc2)NC(=O)[C@H](CO)NC(=O)[C@H](Cc2ccc(-c3ccccc3)cc2)NC(=O)[C@H](CO)NC(=O)[C@H](CCCCN)NC1=O`: the CC50 at 96 h in series [2] was greater than 400 µM. The molecule also gave an IC50 in series [1] of 3.7 µM. Further, in the series with dengue virus type 2, the EC50 is 87.5 µM.
On to `C[C@@H]1NC(=O)CNC(=O)[C@H](C)NC(=O)[C@H](CS)NC(=O)CNC(=O)[C@H](CO)NC(=O)[C@H](CCCCN)NC(=O)[C@H](CCCNC(=N)N)NC1=O` (HELM PEPTIDE1{A.G.A.R.K.S.G.C}$PEPTIDE1,PEPTIDE1,1:R1-8:R2$$$V2.0), for which the IC50 in series [1] is greater than 200 µM.
The same measure, in the same setting: in the case of `C[C@@H]1NC(=O)[C@H](CCc2ccccc2)NC(=O)[C@H](CO)NC(=O)[C@H](CCCCN)NC(=O)[C@H](CCCNC(=N)N)NC(=O)[C@H](CCCCN)NC(=O)CNC(=O)[C@H](c2ccccc2)NC1=O` it was 22.2 µM; in that of `C[C@@H]1NC(=O)[C@H](CCc2ccccc2)NC(=O)[C@H](CO)NC(=O)[C@H](CCCCN)NC(=O)[C@H](CCCNC(=N)N)NC(=O)[C@H](CCCCN)NC(=O)CNC(=O)[C@@H](Cc2ccccc2)NC1=O`, 7.6 µM.
`C[C@@H]1NC(=O)CNC(=O)[C@H](CO)NC(=O)[C@H](CCCCN)NC(=O)[C@H](CCCNC(=N)N)NC(=O)[C@H](CCCCN)NC(=O)CNC(=O)[C@H](C)NC1=O` (HELM PEPTIDE1{A.A.G.K.R.K.S.G}$PEPTIDE1,PEPTIDE1,1:R1-8:R2$$$V2.0) showed an IC50 in series [1] of 57.4 µM.
On the same count and under the same terms, with `N=C(N)NCCC[C@@H]1NC(=O)[C@H](CCCCN)NC(=O)CNC(=O)[C@@H](Cc2ccccc2)NC(=O)[C@H](CO)NC(=O)[C@H](CCc2ccccc2)NC(=O)[C@H](CO)NC(=O)[C@H](CCCCN)NC1=O` the figure was 5 µM.
Still for that read-out and setting: with `C[C@@H]1NC(=O)[C@H](CS)NC(=O)CNC(=O)[C@H](CO)NC(=O)[C@H](C)NC(=O)[C@H](CCCNC(=N)N)NC(=O)[C@H](CCCCN)NC(=O)CNC1=O` (HELM PEPTIDE1{A.G.K.R.A.S.G.C}$PEPTIDE1,PEPTIDE1,1:R1-8:R2$$$V2.0) the figure was greater than 200 µM; with `C[C@@H]1NC(=O)[C@@H](Cc2ccccc2)NC(=O)[C@H](CO)NC(=O)[C@H](CCc2ccccc2)NC(=O)[C@H](CO)NC(=O)[C@H](CCCCN)NC(=O)[C@H](CCCNC(=N)N)NC(=O)[C@H](CCCCN)NC1=O`, 28.5 µM; with `N=C(N)NCCC[C@@H]1NC(=O)[C@H](CCCCN)NC(=O)[C@@H]2CCCN2C(=O)[C@@H](Cc2ccccc2)NC(=O)[C@H](CO)NC(=O)[C@H](CCc2ccccc2)NC(=O)[C@H](CO)NC(=O)[C@H](CCCCN)NC1=O`, 52 µM.
On the same count and under the same terms, with `C[C@@H]1NC(=O)[C@H](CCc2ccccc2)NC(=O)[C@H](CO)NC(=O)[C@H](CCCCN)NC(=O)[C@H](CCCNC(=N)N)NC(=O)[C@H](CCCCN)NC(=O)CNC(=O)[C@@H](CCc2ccccc2)NC1=O` the figure was 16.2 µM.
